Drawing on the supplement of paper PMC3493320, this text covers IC50 for 84 compounds.

The IC50 is the concentration at which inhibition is half-maximal.

The structures appear in SMILES notation.

The subject of this assay is NCI-H295R. The assay can be described thus: IC50 (antiproliferative, ATP content). The settings on record: 48 h. A digest of the protocol: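 Adrenocortical carcinoma cells were plated at 1500 per well in 1536-well plates in serum-free DMEM with ITS supplement, left overnight, then given library compounds by pin transfer at 8 final concentrations spanning 0.6 nM to 46 µM and held 48 h at 37 °C, 5% CO2. ATP was measured as CellTiter-Glo luminescence after 20 min at room temperature and scaled between vehicle and positive-control wells. A four-parameter logistic model was fitted to each series. The IC50 was taken from these fits, and compounds without a concentration response were recorded as above the top dose.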
Take `O=C1OC(OC(=O)c2cccnc2Nc2cccc(C(F)(F)F)c2)c2ccccc21` (centres undefined): the IC50 was above 46 µM.

Consider `CC(C)(C)c1ccc2c(S(=O)(=O)[O-])c(C(C)(C)C)ccc2c1.[Na+]`, for which the IC50 is above 46 µM.

As to `Oc1ccc(/C=C/c2cc(O)cc(O)c2)cc1`, the IC50 is above 46 µM.

As for `CCOc1ccccc1O[C@H](c1ccccc1)[C@H]1CNCCO1.CS(=O)(=O)O`, the IC50 was above 46 µM.

In the case of `O=C(O)c1cc(N=Nc2ccc(S(=O)(=O)Nc3ccccn3)cc2)ccc1O`, the IC50 is above 46 µM.

`Clc1ccccc1-c1nc(-c2ccncc2)no1` registered a 50% inhibitory concentration (IC50) above 46 µM.

`CN(C)CCOC(=O)C(c1ccccc1)C1(O)CCCC1.Cl` (centres undefined) had an IC50 above 46 µM.

In turn, `O=C1[C@@]([C@](CC5)(C)[C@]4([H])C([C@H]5O[C@@H]3[C@H](O[C@H]7[C@H](O)[C@@H](O)[C@H](O)[C@@H]([C@](O)=O)O7)[C@@H](O)[C@H](O)[C@@H]([C@@](O)=O)O3)(C)C)([H])[C@](CC4)(C)[C@@]2(C)C([C@]([C@@]6(C)CC2)([H])C[C@@](CC6)(C)[C@@](O)=O)=C1` returned an IC50 above 46 µM.

In the case of `CNC[C@H](O)c1ccc(O)c(O)c1`, the IC50 was above 46 µM.

For the compound `CCCCCCCC(=O)OCC(COC(=O)CCCCCCC)OC(=O)CCCCCCC`, the IC50 was above 46 µM.

Compound `N=C(N)NCC1COC2(CCCCC2)O1.N=C(N)NCC1COC2(CCCCC2)O1.O=S(=O)(O)O` (centres undefined) gave an IC50 above 46 µM.

Consider `C/C(=C\C(=O)OCCCCCCCCC(=O)O)C[C@@H]1OC[C@H](C[C@@H]2O[C@H]2[C@@H](C)[C@H](C)O)[C@@H](O)[C@H]1O`, for which the IC50 is above 46 µM.

In turn, `CN1CCN(C2=Nc3ccccc3Oc3ccc(Cl)cc32)CC1.O=C(O)CCC(=O)O` showed an IC50 above 46 µM.

Regarding `Nc1nc(/C(=C/CC(=O)O)C(=O)N[C@@H]2C(=O)N3C(C(=O)O)=CCS[C@H]23)cs1`, the 50% inhibitory concentration (IC50) is above 46 µM.

For `CCN(CC)CCC(=O)N1c2ccccc2Sc2ccc(C(F)(F)F)cc21`, the IC50 is above 46 µM.

`CN(C)C(=O)COC(=O)Cc1ccc(OC(=O)c2ccc(NC(=N)N)cc2)cc1.CS(=O)(=O)O` registered an IC50 above 46 µM.

`CC(C(=O)O)c1ccc2c(c1)[nH]c1ccc(Cl)cc12` (centres undefined) came in with an IC50 above 46 µM.

Consider `CN[C@@H]1[C@H](O)[C@H](NC)[C@H]2O[C@@]3(O)C(=O)C[C@@H](C)O[C@H]3O[C@@H]2[C@H]1O.Cl.Cl`, for which the IC50 is above 46 µM.

For `CC1=C(/C=C/C(C)=C/C=C/C(C)=C/C(=O)Oc2c(C)c(C)c3c(c2C)CC[C@@](C)(CCC[C@H](C)CCC[C@H](C)CCCC(C)C)O3)C(C)(C)CCC1`, the IC50 was above 46 µM.

On to `O=C(OOC(=O)c1ccccc1)c1ccccc1`, for which the IC50 is above 46 µM.

In turn, `O=C([O-])COc1nn(Cc2ccccc2)c2ccccc12.[Na+]` came in with an IC50 above 46 µM.

Take `COc1cc(OC)cc(OC)c1`: the IC50 was above 46 µM.

In the case of `COc1cc2c(cc1OC)CC(=O)N(CCCN(C)C[C@H]1Cc3cc(OC)c(OC)cc31)CC2.Cl`, the 50% inhibitory concentration (IC50) is above 46 µM.

With `Cc1c(-c2ccccc2)oc2c(C(=O)OCCN3CCCCC3)cccc2c1=O.Cl`, the IC50 was above 46 µM.

`CN1CCN(CCC(=O)N2c3ccccc3Sc3ccc(C(F)(F)F)cc32)CC1`: the concentration for half-maximal inhibition (IC50) is above 46 µM.

In turn, `CC(=O)Nc1ccc(S(=O)(=O)Nc2ccc([N+](=O)[O-])cc2)cc1` registered a concentration for half-maximal inhibition (IC50) above 46 µM.

Compound `O=P(O)(O)C(O)(Cn1ccnc1)P(=O)(O)O` had an IC50 above 46 µM.

In turn, `CCN1CCC[C@H]1CNC(=O)c1c(OC)ccc(Br)c1OC` yielded an IC50 above 46 µM.

The compound `CC(C)=CCC/C(C)=C/CC/C(C)=C/CC/C=C(\C)CC/C=C(\C)CCC=C(C)C` showed an IC50 above 46 µM.

In turn, `CCC(=O)c1ccc2c(c1)N(CCCN(C)C)c1ccccc1S2.Cl` showed an IC50 above 46 µM.

`CC1=C(/C=C/C(C)=C/C=C/C(C)=C/C=C/C=C(C)/C=C/C=C(C)/C=C/C2=C(C)CCCC2(C)C)C(C)(C)CCC1` gave an IC50 above 46 µM.

As for `CCCCCCCCCCCC(=O)N(CCO)CCO`, the IC50 is above 46 µM.

`CN1CCC(OC(c2ccccc2)c2ccccc2)CC1.Cl` displayed an IC50 above 46 µM.

`CC(CC=O)CCCC(C)(C)O` (centres undefined) had an IC50 above 46 µM.

`O=C(OC(C)C)/C(C(OC(C)C)=O)=C1SC=CS/1` had an IC50 above 46 µM.

Consider `CCCCCCCCCCCCCCCCCCCCCCO`, for which the IC50 is above 46 µM.

Regarding `CS(=O)(=O)Nc1ccc([N+](=O)[O-])cc1Oc1ccccc1`, the IC50 is above 46 µM.

The compound `CCC1(c2ccccc2)C(=O)N(COC)C(=O)N(COC)C1=O` registered an IC50 above 46 µM.

With `O=[N+]([O-])/N=C1\NCCN1Cc1ccc(Cl)nc1`, the IC50 is above 46 µM.

For the compound `COc1c(N2C[C@@H]3CCCN[C@@H]3C2)c(F)cc2c(=O)c(C(=O)O)cn(C3CC3)c12.Cl`, the IC50 was above 46 µM.

In turn, `O=C(O)CCC(=O)Nc1ccc(S(=O)(=O)Nc2nccs2)cc1` displayed an IC50 above 46 µM.

As to `CC(C)[C@@H](N)C(=O)O`, the IC50 is above 46 µM.

Take `NC[C@H]1O[C@H](O[C@H]2[C@H](O)[C@@H](O[C@H]3O[C@H](CO)[C@@H](O)[C@H](N)[C@H]3O)[C@H](N)C[C@@H]2N)[C@H](N)C[C@@H]1O`: the IC50 was above 46 µM.

`C[C@H]1O[C@H](O[C@H]2[C@H](O)[C@@H](O)[C@@H](O[C@H]3[C@H](O)[C@@H](O)[C@H](O)O[C@@H]3CO)O[C@@H]2CO)[C@H](O)[C@@H](O)[C@@H]1N[C@H]1C=C(CO)[C@@H](O)[C@H](O)[C@H]1O` yielded an IC50 above 46 µM.

Compound `Nc1cc(-c2ccncc2)c[nH]c1=O` yielded a concentration for half-maximal inhibition (IC50) above 46 µM.

`CO[C@H]1C[C@H](O[C@H]2[C@H](C)[C@@H](O[C@@H]3O[C@H](C)C[C@H](N(C)C)[C@H]3OC(C)=O)[C@@H](C)C[C@]3(CO3)C(=O)[C@H](C)[C@@H](OC(C)=O)[C@@H](C)[C@@H](C)OC(=O)[C@@H]2C)O[C@@H](C)[C@@H]1OC(C)=O` came in with an IC50 above 46 µM.

In turn, `NCCc1cc[nH]n1` returned an IC50 above 46 µM.

On to `O=P([O-])([O-])OP(=O)([O-])[O-].[Na+].[Na+].[Na+].[Na+]`, for which the concentration for half-maximal inhibition (IC50) was above 46 µM.

`Cc1cc(C(C)(C)C)c(O)c(C)c1CC1=NCCN1` registered an IC50 above 46 µM.

The compound `C[C@@H]1CCC[C@H](C)N1.Cl` had an IC50 above 46 µM.

Consider `CCCc1cc(C(N)=S)ccn1`, for which the IC50 is above 46 µM.

`CCN(CC)CCCC(C)Nc1cc(C=Cc2ccccc2Cl)nc2cc(Cl)ccc12` (centres undefined) came in with an IC50 above 46 µM.

Regarding `O=C(CCCN1CCC(O)(c2ccc(Br)cc2)CC1)c1ccc(F)cc1`, the IC50 is above 46 µM.

Take `CCOC(=O)C=C(C)C=CC=C(C)C=Cc1c(C)cc(OC)c(C)c1C`: the IC50 is above 46 µM.

On to `CNCCc1ccccn1.CS(=O)(=O)O`, for which the IC50 was above 46 µM.

The compound `O=C(NC(Cc1cc(=O)[nH]c2ccccc12)C(=O)O)c1ccc(Cl)cc1` (centres undefined) had an IC50 above 46 µM.

In turn, `C#CCN(C)Cc1ccccc1.Cl` gave an IC50 above 46 µM.

Take `Cc1ccc(S(=O)(=O)NC(=O)N[C@@H](C)Cc2ccccc2)cc1`: the IC50 is above 46 µM.

`COc1cc(C(=O)N2CCCCCCC2)cc(OC)c1OC` showed a concentration for half-maximal inhibition (IC50) above 46 µM.

Regarding `CC(C)[C@@H](C)/C=C/[C@@H](C)[C@H]1CC[C@H]2/C(=C/C=C3\C[C@@H](O)CC[C@@H]3C)CCC[C@]12C`, the IC50 was above 46 µM.

Turning to `CC1(C)S[C@@H]2[C@H](NC(=O)[C@@H](NC(=O)N3CCNC3=O)c3ccccc3)C(=O)N2[C@H]1C(=O)[O-].[Na+]`, the IC50 is above 46 µM.

As for `O=C2N1[C@]([C@@]([H])2NC(CC3=CC=CC=C3)=O)([H])SC(C)(C)[C@@H]1[C@@]([O-])=O.[K+]`, the IC50 was above 46 µM.

`CCON=O` yielded a 50% inhibitory concentration (IC50) above 46 µM.

Compound `Cc1cn[nH]c1` showed an IC50 above 46 µM.

Compound `CCCNC(C)C(=O)Nc1ccccc1C.Cl` (centres undefined) had an IC50 above 46 µM.

The compound `O=C(C=Cc1ccccc1)NCCO` gave an IC50 above 46 µM.

For the compound `F[C@]2([C@](C)3CC4)[C@@H](O)C[C@]1(C)[C@@](OC(C)=O)([C@@](C)=O)CC[C@]([H])1[C@@]([H])2CCC3=CC4=O`, the IC50 was above 46 µM.

Regarding `O=C(O)CN(CCOCCOCCN(CC(=O)O)CC(=O)O)CC(=O)O`, the half-maximal inhibitory concentration (IC50) is above 46 µM.

In turn, `Cc1c(Cl)cccc1Nc1ncccc1C(=O)O` returned an IC50 above 46 µM.

Compound `N=C1NCCC(C2NC(=O)/C(=C/NC(N)=O)NC(=O)C(CNC(=O)CC(N)CCCN)NC(=O)C(CO)NC(=O)C(N)CNC2=O)N1.O=S(=O)(O)O` (centres undefined) came in with an IC50 above 46 µM.

Compound `[NH2][Pt]1([NH2])[O]CC(=O)[O]1` registered an IC50 above 46 µM.

Regarding `CN(Cc1ccccc1)Cc1ccccc1`, the IC50 is above 46 µM.

As to `CCCCC(CC)COS(=O)(=O)[O-].[Na+]` (centres undefined), the IC50 is above 46 µM.

Consider `C[C@]12C=CC(=O)C=C1[C@@H](F)C[C@@H]1[C@@H]2[C@@H](O)C[C@@]2(C)[C@H]1CC[C@]2(O)C(=O)CO`, for which the IC50 was above 46 µM.

`CN/C(=N\C#N)NCCSCc1csc(N=C(N)N)n1`: the IC50 is above 46 µM.

Regarding `CN1CC(=O)N2[C@H](c3ccc4c(c3)OCO4)c3[nH]c4ccccc4c3C[C@@H]2C1=O`, the IC50 is above 46 µM.

As for `CCCCCCCCCCCCCC(=O)OCC(COP(=O)([O-])OCC[N+](C)(C)C)OC(=O)CCCCCCCCCCCCC` (centres undefined), the IC50 is above 46 µM.

`O=C([C@H](CC1=CN=CN1)N[C@]([C@H](CC2)NC2=O)=O)N(CCC3)[C@@H]3[C@](N)=O` yielded a half-inhibitory concentration (IC50) above 46 µM.

`Cc1ncc(C[n+]2csc(CCOP(=O)(O)O)c2C)c(N)n1.[Cl-]` had an IC50 above 46 µM.

Turning to `Nc1nc2ccc(OC(F)(F)F)cc2s1`, the IC50 was above 46 µM.

Take `F\C1=C\N(C(=O)NC1=O)[C@@H]2O[C@H](C)[C@@H](O)[C@H]2O`: the IC50 was above 46 µM.

In turn, `CCCNC(C)C(=O)Nc1c(C)csc1C(=O)OC.Cl` (centres undefined) registered an IC50 above 46 µM.

In the case of `O=C(O)c1ccccc1O.Oc1cccc2cccnc12`, the half-maximal inhibitory concentration (IC50) is above 46 µM.

The compound `COC(=O)c1ccccc1O` showed an IC50 above 46 µM.
